# ChEMBL document CHEMBL5360544, “Design, synthesis, and biological evaluation of diaryl heterocyclic derivatives targeting tubulin polymerization with potent anticancer activities” (Eur J Med Chem, 2023)
# Active and inactive are the calls of the source. No cut-off for these calls is given here.
# Assays:
# [1] = tested on: HCT-116; assay: Induction of apoptosis in human HCT-116 cells assessed as viable cells at 0.5 uM incubated for 24 hrs by Annexin V and PI staining based flow cytometry analysis (reference value: 99.63%); format: functional; conditions: read-out: Activity
# [2] = target: Tubulin (Sus scrofa, UniProt P02554+P02550); assay: Inhibition of pig brain tubulin polymerization incubated for […] by spectrophotometric method; format: tissue-based
# [3] = tested on: HCT-116; assay: Induction of apoptosis in human HCT-116 cells assessed as early apoptotic cells at 2 uM incubated for 24 hrs by Annexin V and PI staining based flow cytometry analysis (reference value: 0.26%); format: functional
# [4] = tested on: HCT-116; assay: Induction of apoptosis in human HCT-116 cells assessed as viable cells at 0.125 uM incubated for 24 hrs by Annexin V and PI staining based flow cytometry analysis (reference value: 99.63%); format: functional; conditions: read-out: Activity
# [5] = tested on: HCT-116; assay: Antitumor activity against human HCT-116 cells xenografted in nude mouse assessed as reduction in tumor volume at 100 mg/kg, po administered for 20 days and measured every 2 days; format: functional, organism-based; conditions: time 20.0 day
# [6] = tested on: HCT-116; assay: Induction of apoptosis in human HCT-116 cells assessed as necrotic cells at 0.5 uM incubated for 24 hrs by Annexin V and PI staining based flow cytometry analysis (reference value: 0.04%); format: functional
# [7] = target: T1, Tubulin (Homo sapiens) (UniProt P68371+Q9H4B7+P0DPH7+P68366+Q13509+Q71U36+P04350+Q3ZCM7+P07437+P68363+Q9BQE3+Q6PEY2+Q13885+Q9BVA1+Q9BUF5); assay: Induction of microtubule depolymerization in human HCT-116 cells assessed as appearance of microtubules wrapped around nucleus at 40 nM by immunofluorescent assay; format: cell-based
# [8] = target: T1, Tubulin (Homo sapiens); assay: Induction of microtubule depolymerization in human HCT-116 cells assessed as appearance of short microtubules at 40 nM by immunofluorescent assay; format: cell-based
# [9] = tested on: HCT-116; assay: Induction of apoptosis in human HCT-116 cells assessed as late apoptotic cells at 2 uM incubated for 24 hrs by Annexin V and PI staining based flow cytometry analysis (reference value: 0.07%); format: functional
# [10] = tested on: HCT-116; assay: Induction of apoptosis in human HCT-116 cells assessed as necrotic cells at 2 uM incubated for 24 hrs by Annexin V and PI staining based flow cytometry analysis (reference value: 0.04%); format: functional
# [11] = Metabolic stability in rat liver microsomes assessed as half life preincubated for 2 hrs followed by NADPH regenerating system addition and measured upto 4 hrs by LC-MS method; format: ADME, Microsome; conditions: time < 6 hrs
# [12] = tested on: HeLa; assay: Antiproliferative activity against human HeLa cells incubated for 48 hrs by CCK-8 assay; format: functional, cell-based
# [13] = target: T1, Tubulin (Homo sapiens); assay: Induction of microtubule depolymerization in human HCT-116 cells assessed as appearance of microtubules wrapped around nucleus at 160 nM by immunofluorescent assay; format: cell-based
# [14] = Metabolic stability in human liver microsomes assessed as half life preincubated for 2 hrs followed by NADPH regenerating system addition and measured upto 4 hrs by LC-MS method; format: ADME, Microsome; conditions: time < 6 hrs
# [15] = tested on: HCT-116; assay: Antitumor activity against human HCT-116 cells xenografted in nude mouse assessed as reduction in tumor weight at 100 mg/kg, po administered for 20 days and measured every 2 days; format: functional, organism-based; conditions: time 20.0 day
# [16] = tested on: HCT-116; assay: Inhibition of colony formation in human HCT-116 cells incubated with compound for 24 hrs followed by media replacement and measured after 10 days by crystal violet staining based assay; format: functional, cell-based; conditions: dose 0.5-2 µM
# [17] = tested on: HCT-116; assay: Induction of apoptosis in human HCT-116 cells assessed as late apoptotic cells at 0.5 uM incubated for 24 hrs by Annexin V and PI staining based flow cytometry analysis (reference value: 0.07%); format: functional
# [18] = tested on: HCT-116; assay: Induction of apoptosis in human HCT-116 cells assessed as viable cells at 2 uM incubated for 24 hrs by Annexin V and PI staining based flow cytometry analysis (reference value: 99.63%); format: functional; conditions: read-out: Activity
# [19] = tested on: HCT-116; assay: Antitumor activity against human HCT-116 cells xenografted in nude mouse assessed as reduction in tumor volume at 50 mg/kg, po administered for 20 days and measured every 2 days; format: functional; parameters: scale not given: the % may be the effect or the level left; conditions: time 20 day
# [20] = Toxicity in mouse xenografted with human HCT-116 cells assessed as reduction in body weight at 50 to 100 mg/kg, po administered for 20 days and measured every 2 days; format: organism-based; conditions: in vivo, 480 h, dose 50-100 mg/kg, time 20 day
# [21] = tested on: HCT-116; assay: Induction of cell cycle arrest in human HCT-116 cells assessed as increase in G2/M phase cells incubated for 48 hrs by PI staining based flow cytometry analysis; format: functional; conditions: dose 0.5-2 µM
# [22] = tested on: MDA-MB-231; assay: Antiproliferative activity against human MDA-MB-231 cells incubated for 48 hrs by CCK-8 assay; format: functional, cell-based; conditions: MDA-MB-231, 48 h
# [23] = tested on: HCT-116; assay: Induction of apoptosis in human HCT-116 cells assessed as necrotic cells at 0.125 uM incubated for 24 hrs by Annexin V and PI staining based flow cytometry analysis (reference value: 0.04%); format: functional
# [24] = tested on: HepG2; assay: Antiproliferative activity against human HepG2 cells incubated for 48 hrs by CCK-8 assay; format: functional, cell-based; conditions: HepG2, 48 h
# [25] = Toxicity in mouse xenografted with human HCT-116 cells assessed as reduction in kidney damage at 50 to 100 mg/kg, po administered for 20 days and measured every 2 days by H and E staining based method; format: organism-based; conditions: in vivo, 480 h, dose 50-100 mg/kg, time 20 day
# [26] = Toxicity in mouse xenografted with human HCT-116 cells assessed as reduction in liver damage at 50 to 100 mg/kg, po administered for 20 days and measured every 2 days by H and E staining based method; format: organism-based; conditions: in vivo, 480 h, dose 50-100 mg/kg, time 20 day
# [27] = tested on: HCT-116; assay: Inhibition of colony formation in human HCT-116 cells at 2 uM incubated with compound for 24 hrs followed by media replacement and measured after 10 days by crystal violet staining based assay; format: functional
# [28] = target: T1, Tubulin (Homo sapiens); assay: Induction of microtubule depolymerization in human HCT-116 cells assessed as appearance of short microtubules at 160 nM by immunofluorescent assay; format: cell-based
# [29] = Antiproliferative activity against human HEK293T cells incubated for 48 hrs by CCK-8 assay; format: toxicity, cell-based, HEK-293T
# [30] = tested on: HCT-116; assay: Induction of apoptosis in human HCT-116 cells assessed as late apoptotic cells at 0.125 uM incubated for 24 hrs by Annexin V and PI staining based flow cytometry analysis (reference value: 0.07%); format: functional
# [31] = tested on: HCT-116; assay: Induction of apoptosis in human HCT-116 cells assessed as early apoptotic cells at 0.125 uM incubated for 24 hrs by Annexin V and PI staining based flow cytometry analysis (reference value: 0.26%); format: functional
# [32] = tested on: SW480; assay: Antiproliferative activity against human SW480 cells incubated for 48 hrs by CCK-8 assay; format: functional, cell-based; conditions: SW480, 48 h
# [33] = tested on: HCT-116; assay: Induction of apoptosis in human HCT-116 cells assessed as early apoptotic cells at 0.5 uM incubated for 24 hrs by Annexin V and PI staining based flow cytometry analysis (reference value: 0.26%); format: functional
# [34] = tested on: HCT-116; assay: Antiproliferative activity against human HCT-116 cells incubated for 48 hrs by CCK-8 assay; format: functional, cell-based; conditions: HCT-116, 48 h
# [35] = tested on: HCT-116; assay: Antitumor activity against human HCT-116 cells xenografted in nude mouse assessed as reduction in tumor weight at 50 mg/kg, po administered for 20 days and measured every 2 days; format: functional; parameters: scale not given: the % may be the effect or the level left; conditions: time 20 day
# [36] = Toxicity in mouse xenografted with human HCT-116 cells assessed as reduction in liver damage at 50 mg/kg, po administered for 20 days and measured every 2 days by H and E staining based method; format: organism-based; conditions: in vivo, 480 h, time 20 day
# [37] = Toxicity in mouse xenografted with human HCT-116 cells assessed as reduction in kidney damage at 50 mg/kg, po administered for 20 days and measured every 2 days by H and E staining based method; format: organism-based; conditions: in vivo, 480 h, time 20 day
# [38] = Toxicity in mouse xenografted with human HCT-116 cells assessed as reduction in body weight at 50 mg/kg, po administered for 20 days and measured every 2 days; format: organism-based; conditions: in vivo, 480 h, time 20 day
structure (smiles),measurement,setting,value
COc1cc(-c2ccnn2-c2ccc(N)cc2)cc(OC)c1OC,viability at 0.5 µM,[1],4.92%
same,IC50,[2],8.4 µM
same,Activity,[3],75.68%
same,viability at 0.125 µM,[4],2.2%
same,Activity,[5],inactive
same,Activity,[6],4.87%
same,Activity,[7],Active
same,Activity,[8],Active
same,Activity,[9],19.38%
same,Activity,[10],1.72%
same,half-life,[11],6.9 min
same,IC50,[12],24.6 µM
same,Activity,[13],Active
same,half-life,[14],106 min
same,Activity,[15],inactive
same,inhibition,[16],Dose-Dependent Effect
same,Activity,[17],28.79%
same,viability at 2 µM,[18],3.22%
same,Activity,[19],44.1%
same,Activity,[20],Non-Toxic
same,Activity,[21],Dose-Dependent Effect
same,IC50,[22],11.4 µM
same,Activity,[23],2.17%
same,IC50,[24],1.54 µM
same,Activity,[25],Non-Toxic
same,Activity,[26],Non-Toxic
same,inhibition at 2 µM,[27],100%
same,Activity,[28],Active
same,IC50 at 48 h,[29],> 80 µM
same,Activity,[30],49.45%
same,Activity,[31],46.19%
same,IC50,[32],37.5 µM
same,Activity,[33],61.42%
same,IC50,[34],2.65 µM
same,Activity,[35],27%
COc1ccc(/C=C\c2cc(OC)c(OC)c(OC)c2)cc1O [COMBRETASTATIN A4],half-life,[11],2.3 min
same,IC50,[12],0.63 µM
same,half-life,[14],9.5 min
same,Activity,[19],31.4%
same,IC50,[22],2.13 µM
same,Activity,[36],Non-Toxic
same,IC50,[24],1.36 µM
same,Activity,[37],Non-Toxic
same,IC50 at 48 h,[29],> 80 µM
same,IC50,[32],40 µM
same,Activity,[38],Non-Toxic
same,IC50,[34],2.32 µM
same,Activity,[35],28.8%
